Test results: ChEMBL document CHEMBL4800729 (2021)

Experiments:
[1] = molecular target: Insulin receptor (Homo sapiens) (UniProt P06213); conditions: Rattus norvegicus; Compound concentration 10.0 uM
[2] = molecular target: Tyrosine-protein kinase HCK (Homo sapiens) (UniProt P08631); assay: Hck(h) activated Millipore kinase panel; conditions: Compound concentration 1.0 uM
[3] = molecular target: Rhodopsin kinase GRK1 (Homo sapiens) (UniProt Q15835); assay: GRK1(h) Millipore kinase panel; conditions: Compound concentration 1.0 uM
Chain of Rhodopsin kinase GRK1 (Homo sapiens) (Q15835 whole entry): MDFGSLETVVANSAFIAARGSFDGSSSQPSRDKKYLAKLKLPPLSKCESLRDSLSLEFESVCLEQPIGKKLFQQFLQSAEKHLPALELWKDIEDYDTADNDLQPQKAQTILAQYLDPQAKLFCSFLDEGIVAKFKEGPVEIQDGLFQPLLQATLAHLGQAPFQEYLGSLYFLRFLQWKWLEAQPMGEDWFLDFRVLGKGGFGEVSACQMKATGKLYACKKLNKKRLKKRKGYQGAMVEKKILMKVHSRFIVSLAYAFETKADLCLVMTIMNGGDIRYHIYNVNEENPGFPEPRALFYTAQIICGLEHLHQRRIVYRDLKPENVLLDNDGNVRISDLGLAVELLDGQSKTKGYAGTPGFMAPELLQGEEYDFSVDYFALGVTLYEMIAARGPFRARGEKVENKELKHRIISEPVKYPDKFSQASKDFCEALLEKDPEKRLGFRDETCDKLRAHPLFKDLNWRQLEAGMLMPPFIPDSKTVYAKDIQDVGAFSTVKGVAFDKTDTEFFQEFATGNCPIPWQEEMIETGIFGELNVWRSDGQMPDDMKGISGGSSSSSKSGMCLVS

[4] = molecular target: Cyclin-dependent kinase-like 2 (Homo sapiens) (UniProt Q92772); assay: CDKL2(h) Millipore kinase panel; conditions: Compound concentration 1.0 uM
[5] = molecular target: Receptor tyrosine-protein kinase erbB-2 (Homo sapiens) (UniProt P04626); assay: ErbB2(h) Millipore kinase panel; conditions: Compound concentration 1.0 uM
[6] = molecular target: Histamine H4 receptor (Homo sapiens) (UniProt Q9H3N8); conditions: Compound concentration 10.0 uM
[7] = molecular target: Casein kinase I isoform epsilon (Homo sapiens) (UniProt P49674); assay: CK1epsilon(h) Millipore kinase panel; conditions: Compound concentration 1.0 uM
[8] = molecular target: Activin receptor type-1-like (Homo sapiens) (UniProt P37023); assay: ALK1(h) Millipore kinase panel; conditions: Compound concentration 1.0 uM
[9] = molecular target: T1, Alpha-2C adrenergic receptor (Homo sapiens) (UniProt P18825); conditions: Compound concentration 10.0 uM
T1 sequence (whole entry): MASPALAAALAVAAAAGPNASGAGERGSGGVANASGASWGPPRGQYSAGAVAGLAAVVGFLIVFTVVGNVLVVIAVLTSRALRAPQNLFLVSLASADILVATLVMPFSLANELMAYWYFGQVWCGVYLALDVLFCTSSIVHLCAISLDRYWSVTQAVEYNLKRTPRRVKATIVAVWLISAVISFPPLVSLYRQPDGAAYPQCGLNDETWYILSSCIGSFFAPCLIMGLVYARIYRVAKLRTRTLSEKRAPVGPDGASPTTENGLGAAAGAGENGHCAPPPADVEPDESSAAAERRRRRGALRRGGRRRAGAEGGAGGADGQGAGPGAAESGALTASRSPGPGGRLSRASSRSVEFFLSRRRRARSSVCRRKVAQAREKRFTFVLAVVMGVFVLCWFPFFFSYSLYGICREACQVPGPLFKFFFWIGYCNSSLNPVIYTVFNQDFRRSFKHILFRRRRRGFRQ

[10] = molecular target: 5-hydroxytryptamine receptor 2A (Homo sapiens) (UniProt P28223); conditions: Compound concentration 10.0 uM
[11] = molecular target: Aurora kinase A (Homo sapiens) (UniProt O14965); assay: Aurora_A(h) Millipore kinase panel; conditions: Compound concentration 1.0 uM
Chain of Aurora kinase A (Homo sapiens) (O14965 whole entry): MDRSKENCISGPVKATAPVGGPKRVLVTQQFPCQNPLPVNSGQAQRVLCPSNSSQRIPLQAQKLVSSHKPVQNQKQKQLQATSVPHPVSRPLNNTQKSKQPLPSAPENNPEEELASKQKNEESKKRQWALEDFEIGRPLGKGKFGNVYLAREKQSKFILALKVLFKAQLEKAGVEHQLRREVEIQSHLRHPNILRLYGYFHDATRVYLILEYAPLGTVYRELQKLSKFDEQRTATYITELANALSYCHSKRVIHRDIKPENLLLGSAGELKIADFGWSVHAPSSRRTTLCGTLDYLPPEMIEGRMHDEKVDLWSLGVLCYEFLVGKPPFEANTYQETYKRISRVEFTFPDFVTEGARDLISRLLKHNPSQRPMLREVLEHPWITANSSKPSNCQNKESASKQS

[12] = molecular target: Histamine H3 receptor (Homo sapiens) (UniProt Q9Y5N1); conditions: Compound concentration 10.0 uM
[13] = molecular target: Ephrin type-A receptor 2 (Homo sapiens) (UniProt P29317); assay: EphA2(h) Millipore kinase panel; conditions: Compound concentration 1.0 uM
[14] = molecular target: Tyrosine-protein kinase ZAP-70 (Homo sapiens) (UniProt P43403); assay: ZAP_70(h) Millipore kinase panel; conditions: Compound concentration 1.0 uM
Chain of Tyrosine-protein kinase ZAP-70 (Homo sapiens) (P43403 whole entry): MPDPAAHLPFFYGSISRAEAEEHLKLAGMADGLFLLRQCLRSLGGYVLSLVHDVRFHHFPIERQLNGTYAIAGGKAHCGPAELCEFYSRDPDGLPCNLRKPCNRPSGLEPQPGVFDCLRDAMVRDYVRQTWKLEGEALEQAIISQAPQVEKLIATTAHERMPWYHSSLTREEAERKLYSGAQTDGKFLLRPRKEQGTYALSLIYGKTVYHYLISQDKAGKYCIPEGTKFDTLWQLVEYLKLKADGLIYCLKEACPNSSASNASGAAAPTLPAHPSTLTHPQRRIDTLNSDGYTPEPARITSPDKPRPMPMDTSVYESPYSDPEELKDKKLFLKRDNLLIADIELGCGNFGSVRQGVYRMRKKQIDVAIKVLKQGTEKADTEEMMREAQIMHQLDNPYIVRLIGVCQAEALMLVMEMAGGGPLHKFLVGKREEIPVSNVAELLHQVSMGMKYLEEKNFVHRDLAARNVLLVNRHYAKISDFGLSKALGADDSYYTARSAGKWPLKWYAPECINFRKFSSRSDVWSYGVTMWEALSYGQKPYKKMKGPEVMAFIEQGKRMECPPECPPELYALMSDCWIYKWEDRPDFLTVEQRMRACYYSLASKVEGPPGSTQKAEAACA

[15] = molecular target: Casein kinase II subunit alpha (Homo sapiens) (UniProt P68400); assay: CK2alpha1(h) Millipore kinase panel; conditions: Compound concentration 1.0 uM
[16] = molecular target: Cyclin-dependent kinase 5/CDK5 activator 1 (Homo sapiens) (UniProt Q00535+Q15078); assay: CDK5/p35(h) Millipore kinase panel; type: protein-complex assay; conditions: Compound concentration 1.0 uM
Homo sapiens = organism: Homo sapiens; assay: Cdc7/cyclinB(h) Millipore kinase panel; conditions: Compound concentration 1.0 uM
[17] = molecular target: T2, Muscarinic acetylcholine receptor M1 (Homo sapiens) (UniProt P11229); conditions: Compound concentration 10.0 uM
T2 sequence (whole entry): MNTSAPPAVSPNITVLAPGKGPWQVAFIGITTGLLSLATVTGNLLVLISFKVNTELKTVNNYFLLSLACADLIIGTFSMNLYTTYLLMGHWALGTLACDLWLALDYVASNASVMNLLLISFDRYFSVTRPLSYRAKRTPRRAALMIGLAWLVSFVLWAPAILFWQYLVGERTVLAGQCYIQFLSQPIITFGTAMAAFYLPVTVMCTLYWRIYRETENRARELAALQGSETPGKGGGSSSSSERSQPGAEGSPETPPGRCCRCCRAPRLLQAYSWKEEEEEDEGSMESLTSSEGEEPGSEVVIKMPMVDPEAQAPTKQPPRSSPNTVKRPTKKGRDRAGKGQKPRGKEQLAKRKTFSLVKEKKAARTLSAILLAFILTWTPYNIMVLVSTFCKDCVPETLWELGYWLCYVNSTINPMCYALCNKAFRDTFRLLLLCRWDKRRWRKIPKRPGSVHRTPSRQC

[18] = molecular target: Myotonin-protein kinase (Homo sapiens) (UniProt Q09013); assay: DMPK(h) Millipore kinase panel; conditions: Compound concentration 1.0 uM
[19] = molecular target: MAP kinase-activated protein kinase 2 (Homo sapiens) (UniProt P49137); assay: MAPKAP-K2(h) Millipore kinase panel; conditions: Compound concentration 1.0 uM
Chain of MAP kinase-activated protein kinase 2 (Homo sapiens) (P49137 whole entry, looked up): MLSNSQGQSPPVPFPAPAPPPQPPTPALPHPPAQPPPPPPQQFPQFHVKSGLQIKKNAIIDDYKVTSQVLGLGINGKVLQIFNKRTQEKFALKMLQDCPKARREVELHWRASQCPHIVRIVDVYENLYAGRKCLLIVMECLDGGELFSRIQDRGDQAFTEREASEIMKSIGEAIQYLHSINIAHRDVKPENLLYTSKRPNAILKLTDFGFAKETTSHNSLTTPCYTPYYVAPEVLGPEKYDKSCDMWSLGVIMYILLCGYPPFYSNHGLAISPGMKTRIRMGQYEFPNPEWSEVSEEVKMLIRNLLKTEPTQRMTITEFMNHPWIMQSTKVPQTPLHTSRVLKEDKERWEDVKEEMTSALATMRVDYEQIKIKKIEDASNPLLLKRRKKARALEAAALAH

[20] = molecular target: Serine/threonine-protein kinase MARK2 (Homo sapiens) (UniProt Q7KZI7); assay: PAR-1Balpha(h) Millipore kinase panel; conditions: Compound concentration 1.0 uM
[21] = molecular target: Protein kinase C zeta type (Homo sapiens) (UniProt Q05513); assay: PKCzeta(h) Millipore kinase panel; conditions: Compound concentration 1.0 uM
[22] = molecular target: Tyrosine-protein kinase Srms (Homo sapiens) (UniProt Q9H3Y6); assay: SRMS(h) Millipore kinase panel; conditions: Compound concentration 1.0 uM
[23] = molecular target: Macrophage-stimulating protein receptor (Homo sapiens) (UniProt Q04912); assay: Ron(h) Millipore kinase panel; conditions: Compound concentration 1.0 uM
Chain of Macrophage-stimulating protein receptor (Homo sapiens) (Q04912 25-304 limits assumed): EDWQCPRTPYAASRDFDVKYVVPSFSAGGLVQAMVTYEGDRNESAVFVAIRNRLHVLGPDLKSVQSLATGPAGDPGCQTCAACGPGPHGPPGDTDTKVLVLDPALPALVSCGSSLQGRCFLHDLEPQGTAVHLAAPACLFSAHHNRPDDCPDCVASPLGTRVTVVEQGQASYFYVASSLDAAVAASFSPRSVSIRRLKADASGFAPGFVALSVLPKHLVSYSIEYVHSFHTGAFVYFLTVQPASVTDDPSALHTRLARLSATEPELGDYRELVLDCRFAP
Chain of Macrophage-stimulating protein receptor (Homo sapiens) (Q04912 310-1400 limits assumed): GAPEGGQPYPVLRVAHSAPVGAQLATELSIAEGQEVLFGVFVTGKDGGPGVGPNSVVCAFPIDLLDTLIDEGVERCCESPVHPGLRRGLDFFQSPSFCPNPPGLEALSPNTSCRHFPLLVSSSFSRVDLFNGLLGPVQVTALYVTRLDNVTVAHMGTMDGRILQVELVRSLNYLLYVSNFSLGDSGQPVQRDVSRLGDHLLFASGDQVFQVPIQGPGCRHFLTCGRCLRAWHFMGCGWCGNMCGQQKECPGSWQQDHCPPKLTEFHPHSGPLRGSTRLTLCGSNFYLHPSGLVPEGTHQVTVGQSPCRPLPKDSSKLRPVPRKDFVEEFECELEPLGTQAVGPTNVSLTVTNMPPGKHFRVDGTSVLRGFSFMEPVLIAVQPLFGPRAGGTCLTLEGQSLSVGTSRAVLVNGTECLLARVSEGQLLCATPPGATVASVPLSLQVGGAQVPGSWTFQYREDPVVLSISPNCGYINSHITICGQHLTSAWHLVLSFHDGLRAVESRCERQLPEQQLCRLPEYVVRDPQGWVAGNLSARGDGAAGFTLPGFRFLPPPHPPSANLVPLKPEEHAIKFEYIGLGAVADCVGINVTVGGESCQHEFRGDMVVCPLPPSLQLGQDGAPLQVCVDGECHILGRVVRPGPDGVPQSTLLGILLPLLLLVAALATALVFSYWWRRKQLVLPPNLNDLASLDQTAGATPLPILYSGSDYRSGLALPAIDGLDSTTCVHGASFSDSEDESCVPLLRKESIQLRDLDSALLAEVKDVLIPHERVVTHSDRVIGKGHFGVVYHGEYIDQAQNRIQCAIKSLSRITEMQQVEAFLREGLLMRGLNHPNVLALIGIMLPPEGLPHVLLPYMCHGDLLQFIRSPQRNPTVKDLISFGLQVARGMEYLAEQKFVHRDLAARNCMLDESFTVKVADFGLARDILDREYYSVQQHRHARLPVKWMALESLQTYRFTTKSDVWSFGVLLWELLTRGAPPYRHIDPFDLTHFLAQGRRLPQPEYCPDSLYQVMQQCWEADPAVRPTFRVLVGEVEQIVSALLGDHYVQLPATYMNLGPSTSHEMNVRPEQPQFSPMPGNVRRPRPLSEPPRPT

[24] = molecular target: Myosin light chain kinase (Homo sapiens) (UniProt Q32MK0); assay: MLCK(h) Millipore kinase panel; conditions: Compound concentration 1.0 uM
Chain of Myosin light chain kinase (Homo sapiens) (Q32MK0 whole entry): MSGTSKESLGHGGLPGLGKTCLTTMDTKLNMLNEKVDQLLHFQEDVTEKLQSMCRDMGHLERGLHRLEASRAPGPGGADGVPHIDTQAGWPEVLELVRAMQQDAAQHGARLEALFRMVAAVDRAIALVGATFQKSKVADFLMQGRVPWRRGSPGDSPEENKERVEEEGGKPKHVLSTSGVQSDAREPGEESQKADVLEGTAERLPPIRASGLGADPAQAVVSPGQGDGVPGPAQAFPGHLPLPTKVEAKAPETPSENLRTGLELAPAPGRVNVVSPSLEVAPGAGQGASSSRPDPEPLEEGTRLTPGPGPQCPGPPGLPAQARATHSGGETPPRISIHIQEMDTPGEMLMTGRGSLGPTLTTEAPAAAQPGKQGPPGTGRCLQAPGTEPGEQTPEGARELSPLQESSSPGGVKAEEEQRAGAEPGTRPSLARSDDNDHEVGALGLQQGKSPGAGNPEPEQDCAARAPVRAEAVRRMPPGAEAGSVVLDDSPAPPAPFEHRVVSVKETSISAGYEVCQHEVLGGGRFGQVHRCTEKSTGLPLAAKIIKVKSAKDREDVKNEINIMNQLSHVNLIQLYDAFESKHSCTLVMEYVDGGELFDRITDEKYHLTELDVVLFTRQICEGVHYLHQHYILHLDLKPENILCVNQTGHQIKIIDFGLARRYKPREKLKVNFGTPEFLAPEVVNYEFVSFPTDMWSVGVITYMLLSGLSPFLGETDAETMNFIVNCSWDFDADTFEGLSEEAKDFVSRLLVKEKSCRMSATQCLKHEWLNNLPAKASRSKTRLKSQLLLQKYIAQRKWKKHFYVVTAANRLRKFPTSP

[25] = molecular target: Non-receptor tyrosine-protein kinase TYK2 (Homo sapiens) (UniProt P29597); assay: TYK2(h) Millipore kinase panel; conditions: Compound concentration 1.0 uM
[26] = molecular target: 5-hydroxytryptamine receptor 2C (Homo sapiens) (UniProt P28335); conditions: Compound concentration 10.0 uM
[27] = molecular target: Fibroblast growth factor receptor 1 (Homo sapiens) (UniProt P11362); assay: FGFR1(h) Millipore kinase panel; conditions: Compound concentration 1.0 uM
[28] = molecular target: Adenosine receptor A3 (Homo sapiens) (UniProt P0DMS8); conditions: Compound concentration 10.0 uM
Chain of Adenosine receptor A3 (Homo sapiens) (P0DMS8 whole entry): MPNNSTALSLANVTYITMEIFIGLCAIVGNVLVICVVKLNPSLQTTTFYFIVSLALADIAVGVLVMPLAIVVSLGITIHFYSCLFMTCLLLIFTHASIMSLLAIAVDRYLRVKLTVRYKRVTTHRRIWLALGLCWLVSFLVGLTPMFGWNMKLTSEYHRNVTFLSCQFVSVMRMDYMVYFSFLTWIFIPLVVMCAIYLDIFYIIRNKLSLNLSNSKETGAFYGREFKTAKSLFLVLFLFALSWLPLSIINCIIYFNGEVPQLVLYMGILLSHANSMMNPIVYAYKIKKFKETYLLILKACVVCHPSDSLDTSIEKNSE

[29] = molecular target: Serine/threonine-protein kinase STK11 (Homo sapiens) (UniProt Q15831); assay: LKB1(h) Millipore kinase panel; conditions: Compound concentration 1.0 uM
[30] = molecular target: Testis-specific serine/threonine-protein kinase 2 (Homo sapiens) (UniProt Q96PF2); assay: TSSK2(h) Millipore kinase panel; conditions: Compound concentration 1.0 uM
[31] = molecular target: Death-associated protein kinase 1 (Homo sapiens) (UniProt P53355); assay: DAPK1(h) Millipore kinase panel; conditions: Compound concentration 1.0 uM
[32] = molecular target: Serine/threonine-protein kinase N1 (Homo sapiens) (UniProt Q16512); assay: PRK1(h) Millipore kinase panel; conditions: Compound concentration 1.0 uM
[33] = molecular target: Tyrosine-protein kinase HCK (Homo sapiens) (UniProt P08631); assay: Hck(h) Millipore kinase panel; conditions: Compound concentration 1.0 uM
[34] = molecular target: Serine/threonine-protein kinase PLK3 (Homo sapiens) (UniProt Q9H4B4); assay: Plk3(h) Millipore kinase panel; conditions: Compound concentration 1.0 uM
[35] = molecular target: Serine/threonine-protein kinase D1 (Homo sapiens) (UniProt Q15139); assay: PKCmu(h) Millipore kinase panel; conditions: Compound concentration 1.0 uM
[36] = molecular target: Serine/threonine-protein kinase PLK1 (Homo sapiens) (UniProt P53350); assay: Plk1(h) Millipore kinase panel; conditions: Compound concentration 1.0 uM

Measured: inhibition

Chain of Tyrosine-protein kinase HCK (Homo sapiens) (P08631 2-526 limits assumed): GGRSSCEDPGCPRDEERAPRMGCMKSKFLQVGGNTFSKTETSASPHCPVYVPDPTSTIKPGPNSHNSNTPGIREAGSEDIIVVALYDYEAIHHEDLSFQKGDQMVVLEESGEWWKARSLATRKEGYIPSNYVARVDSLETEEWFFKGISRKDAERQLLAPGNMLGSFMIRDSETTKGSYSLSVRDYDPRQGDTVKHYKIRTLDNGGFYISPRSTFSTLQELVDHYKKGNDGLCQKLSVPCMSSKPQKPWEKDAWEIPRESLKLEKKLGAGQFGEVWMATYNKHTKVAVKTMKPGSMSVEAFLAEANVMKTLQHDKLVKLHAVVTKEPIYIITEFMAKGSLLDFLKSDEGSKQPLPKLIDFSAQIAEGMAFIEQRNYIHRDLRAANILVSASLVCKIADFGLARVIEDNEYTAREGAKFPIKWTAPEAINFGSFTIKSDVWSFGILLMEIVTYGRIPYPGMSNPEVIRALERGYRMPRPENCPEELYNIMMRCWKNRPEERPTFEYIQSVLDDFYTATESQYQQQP

CC[C@@H](Nc1c(C#N)c(-c2ccc(-c3cccc(C)c3F)cc2)nc2cnccc12)C(=O)O [BAY-091]
inactive: [1] -1% | [2] -6.21% | [3] 1.52% | [4] 19.4% | [5] 8.53% | [6] 15.8% | [7] 8.85% | [8] -6.17% | [9] 4% | [10] -8.43% | [11] 13.8% | [12] -3.06% | [13] -0.55% | [14] 2.99% | [15] 3.34% | [16] -0.03% | Homo sapiens 3.59% | [17] -5.6% | [18] 15.1% | [19] 5.05% | [20] 6.75% | [21] -2.41% | [22] 26.3% | [23] 0.76% | [24] -5.27% | [25] 1.22% | [26] -9.38% | [27] 6.44% | [28] 21% | [29] 5.7% | [30] -1.97% | [31] -3.29% | [32] 5.64% | [33] 0.45% | [34] -7.76% | [35] 12.7% | [36] 4.29%
